Laboratory results reported in paper PMC8269107, “Lipidation of Temporin-1CEb Derivatives as a Tool for Activity Improvement, Pros and Cons of the Approach” (International Journal of Molecular Sciences, 2021).
≈ marks a conversion by molar mass, not a printed value. Where a SMILES comes first, the peptide text is derived from it. [ ]: non-standard residue; d: D form. The star is where a group is joined. Palmitoyl = CCCCCCCCCCCCCCCC(=O)*; Lauroyl = CCCCCCCCCCCC(=O)*; Pentanoyl = CCCCC(=O)*; AEEA = NCCOCCOCC(=O)O; Ahx = NCCCCCC(=O)O; βAla = NCCC(=O)O

Tests used:
C.krusei CCM 8271 = assay: MIC, broth microdilution; assay type: cell-based, Candida krusei; conditions: C.krusei CCM 8271, 24 h
Excerpt: (§1) Escherichia coli (PCM 2057 = ATCC 25922), Staphylococcus aureus (PCM 2054 = ATCC 25923), Staphylococcus epidermidis (PCM 2118 = ATCC 14990), Bacillus subtilis (PCM 2224 = ATCC 9799), Bacillus cereus (PCM 482 = ATCC 10702) and Pseudomonas aeruginosa (PCM 499 = ATCC 10145) were obtained from the Polish Collection of Microorganisms. Fungi strains Candida albicans (CCM 8186 = CNTC 49/64), Candida glabrata (CCM 8270 = ATCC 90030), Candida parapsilosis (CCM 8260 = ATCC 22019) and Candida krusei (CCM 8271 = ATCC 6258) were acquired from the Czech Collection of Microorganisms. S. aureus USA300 (wild type strain), the reference strain of Klebsiella pneumoniae (ATCC 13883) and clinical isolates of Pseudomonas aeruginosa (PA1, PA2) collected from nonrelated patients admitted to the Stefan Zeromski Specialist Municipal Hospital in Krakow (Poland) were kindly provided by the research group of the Department of Microbiology, Faculty of Biochemistry, Biophysics and Biotechnology, Jagiellonian University, Krakow, Poland.
(§2) Luria-Bertani broth (LB) and Sabouraud Dextrose broth (SB) (Biocorp, Poland) were used for cultivation of bacteria and fungi strains, respectively. The antimicrobial activity of the peptides were analyzed through determination of MIC (minimal inhibitory concentration) parameters according to Clinical and Laboratory Standards (CLSI) guidelines developed for aerobic bacteria and yeasts, respectively. Mueller-Hinton broth (MHB) was used as the working medium for all bacterial strains, while in the case of fungi, RPMI-1640 (with L-glutamine, without sodium bicarbonate) growth medium buffered with MOPS (morpholinepropanesulfonic acid) and supplemented with 2% glucose was used. Inoculum was prepared from freshly grown cultures of microorganisms at their exponential phase of growth. […] Plates were then incubated for 24 h at 37 °C in the case of bacteria and at 35 °C in the case of fungi. After that time, absorbance was read at 590 nm with a Perkin Elmer plate reader. Cultures without peptide were treated as positive control, while uninoculated media were defined as negative control. All measurements were run at least in triplicate.

E. coli PCM 2057 = assay: MIC, broth microdilution; assay type: cell-based, Escherichia coli; conditions: E. coli PCM 2057, 24 h
Excerpt: as §1, §2

C.albicans CCM 8186 = assay: MIC, broth microdilution; assay type: cell-based, Candida albicans; conditions: C.albicans CCM 8186, 24 h
Excerpt: as §1, §2

S. epidermidis PCM 2118 = assay: MIC, broth microdilution; assay type: cell-based, Staphylococcus epidermidis; conditions: S. epidermidis PCM 2118, 24 h
Excerpt: as §1, §2

B. subtilis PCM 2224 = assay: MIC, broth microdilution; assay type: cell-based, Bacillus subtilis; conditions: B. subtilis PCM 2224, 24 h
Excerpt: as §1, §2

[1] = system: S. aureus (PCM 2054) biofilm; assay: Biofilm eradication assay, pre-formed 24 h old biofilm (MTT); assay type: cell-based, Staphylococcus aureus; conditions: S. aureus pre-formed 24 h old biofilm, 24 h treatment
Procedure: Biofilm eradication activity of the synthesized compounds was analyzed against 24 h old biofilms of S. aureus and C. albicans. In the case of bacteria, an overnight culture of S. aureus in Tryptic Soy Broth (TSB) supplemented with 2% glucose (TSB/+G) was used to prepare inoculum for the experiments. Briefly, 5 mL of 24 h culture was centrifuged at 5000× g, washed with sterile PBS and suspended in a fresh TSB/+G. The bacterial suspension was then diluted in a fresh growth medium to obtain the final concentration of colonies of about 1 × 10^7 cells per ml. Further, 200 μL of the inoculum was transferred to each well of 96-well sterile polystyrene flat-bottomed plate, and bacteria were then incubated for the next 24 h without shaking at 37 °C.
After that, each well of the plates containing bacterial or fungi biofilm was washed three times with PBS in order to remove all non-adherent cells. Then, peptide solutions of 200 µL ranging from 50 to 0,39 µg/mL prepared in TSB +/G in the case of experiments on S. aureus biofilm, and (RPMI-1640/+G) in the case of C. alibcans, were prepared and transferred into the microtiter plates. After the addition of the peptides, the experiments were continued for the next 24 h.
The reduction in biofilm viability was analyzed by means of MTT assay. Briefly, 20 μL of MTT solution (5 mg/mL in PBS) was added to prewashed wells with exchanged medium (180 μL of fresh medium) wells containing bacterial/yeast biofilms. Plates were then incubated in the dark for the next 3 h at 37 °C. After that time, the medium was replaced with 6 mM HCl in isopropanol and, when the reduced MTT was fully dissolved, the plates were read at 570 nm. Activity against fully developed 24 h old biofilm was described as biofilm eradication concentration (BEC50 expressed in µg/mL), which corresponded to the concentration of the compound able to reduce 50% of biofilm viability compared with the growth control.

keratinocytes (HaCaT) = assay: Cytotoxicity, MTT assay; assay type: cell-based, human; conditions: MTT, 24 h; for IC50: Keratinocytes (HaCaT); for effect on cell viability (in words): keratinocytes, 1 to 50 µg/mL
Procedure: (§3) Human dermal fibroblasts were obtained as previously reported from biopsies of healthy human skin of three donors undergoing a surgery. All procedures were approved by the Ethics Committee of Medicinal University of Gdansk (NKEBN/483/2011 and NKBBN/745/2019-2020). Immortalized human HaCaT keratinocytes (DKFZ Heidelberg, Germany) were obtained commercially.
(§4) Both types of cell lines were grown in Dulbecco′s Modified Eagle′s Medium (DMEM) (Sigma-Aldrich, Germany), containing […] of glucose, […] of L- glutamine, sodium pyruvate and sodium bicarbonate. Additionally, the medium was supplemented with 10% FCS (fetal calf serum, Sigma-Aldrich, Germany), 100 U/mL of penicillin and 100 μg/mL of streptomycin (Sigma-Aldrich, Germany). The cells were grown in standard culture dishes (BD, USA) in a humidified atmosphere with 5% CO2 at […], and the medium was changed every 2 days.
(§5) The fibroblasts and keratinocytes were seeded at density of 5500 cells per well into 96-well plates suspended in a medium supplemented with 10% FCS. After 24 h from seeding, the media were exchanged with serum- and antibiotic-free DMEM and tested peptides, dissolved in sterile water, which were added, yielding a final concentration ranging from 1 to 50 μg/mL. The cells were then incubated for the next 24 h. At the end of the experiment, the cells were treated with 20 μL of MTT (5 mg/mL in PBS). After 3 h of incubation in the presence of MTT dye, the DMEM medium was discarded and replaced with 6 mM HCl in isopropanol. When the purple crystals of formazan were fully solubilized, absorbance at 570 nm was read.

primary fibroblasts = assay: Cytotoxicity, MTT assay; assay type: cell-based, human; conditions: MTT, 24 h; for effect on cell viability (in words): fibroblasts, 1 to 50 µg/mL; for IC50: primary Fibroblasts
Procedure: as §3, §4, §5

C.glabrata CCM 8270 = assay: MIC, broth microdilution; assay type: cell-based, Candida glabrata; conditions: C.glabrata CCM 8270, 24 h
Excerpt: as §1, §2

B. cereus PCM 482 = assay: MIC, broth microdilution; assay type: cell-based, Bacillus cereus; conditions: B. cereus PCM 482, 24 h
Excerpt: as §1, §2

SMILES | MIC100 (C.krusei CCM 8271) [µg/mL] | MIC100 (E. coli PCM 2057) [µg/mL] | MIC100 (C.albicans CCM 8186) [µg/mL] | MIC100 (S. epidermidis PCM 2118) [µg/mL] | MIC100 (B. subtilis PCM 2224) [µg/mL] | BEC50 [1] [µg/mL] | IC50 (keratinocytes (HaCaT)) [µg/mL] | effect on cell viability (in words) (keratinocytes (HaCaT)) | effect on cell viability (in words) (primary fibroblasts) | IC50 (primary fibroblasts) [µg/mL] | MIC100 (C.glabrata CCM 8270) [µg/mL] | MIC100 (B. cereus PCM 482) [µg/mL]
CC[C@H](C)[C@H](NC(=O)COCCOCCNC(=O)[C@H](Cc1c[nH]cn1)NC(=O)CCNC(=O)CCCCCN)C(=O)N[C@@H](CCCCN)C(=O)N[C@@H](CCCCN)C(=O)N[C@H](C(=O)N[C@@H](CC(C)C)C(=O)N[C@@H](CO)C(=O)N[C@@H](CCCCN)C(=O)N[C@H](C(=O)N[C@@H](CCCCN)C(=O)N[C@@H](CCCCN)C(=O)N[C@@H](CC(C)C)C(=O)N[C@@H](CC(C)C)C(N)=O)[C@@H](C)CC)[C@@H](C)CC [AHX-CAR-PEG-DK5] (H-[Ahx][βAla]H[AEEA]IKKILSKIKKLL-NH2) | >50 | >50 | >50 | 6.25 (≈ 3.31 µM) | 6.25 (≈ 3.31 µM) | >50 | >50 | neutral or even pro-proliferative | neutral or even pro-proliferative | >50 | >50 | >50
CC[C@H](C)[C@H](NC(=O)CCCCCN)C(=O)N[C@@H](CCCCN)C(=O)N[C@@H](CCCCN)C(=O)N[C@H](C(=O)N[C@@H](CC(C)C)C(=O)N[C@@H](CO)C(=O)N[C@@H](CCCCN)C(=O)N[C@H](C(=O)N[C@@H](CCCCN)C(=O)N[C@@H](CCCCN)C(=O)N[C@@H](CC(C)C)C(=O)N[C@@H](CC(C)C)C(N)=O)[C@@H](C)CC)[C@@H](C)CC [AHX-DK5] (H-[Ahx]IKKILSKIKKLL-NH2) | 50 (≈ 32.5 µM) | 12.5 (≈ 8.13 µM) | 12.5 (≈ 8.13 µM) | 0.78 (≈ 0.507 µM) | 0.78 (≈ 0.507 µM) | 25 | >50 | moderately toxic | moderately toxic | 50 (≈ 32.5 µM) | 12.5 (≈ 8.13 µM) | 50 (≈ 32.5 µM)
CCCCC(=O)NCCC(=O)N[C@@H](Cc1c[nH]cn1)C(=O)NCCOCCOCC(=O)N[C@H](C(=O)N[C@@H](CCCCN)C(=O)N[C@@H](CCCCN)C(=O)N[C@H](C(=O)N[C@@H](CC(C)C)C(=O)N[C@@H](CO)C(=O)N[C@@H](CCCCN)C(=O)N[C@H](C(=O)N[C@@H](CCCCN)C(=O)N[C@@H](CCCCN)C(=O)N[C@@H](CC(C)C)C(=O)N[C@@H](CC(C)C)C(N)=O)[C@@H](C)CC)[C@@H](C)CC)[C@@H](C)CC [C5-CAR-PEG-DK5] ({Pentanoyl-βAla}-H[AEEA]IKKILSKIKKLL-NH2) | >50 | >50 | >50 | 6.25 (≈ 3.36 µM) | 6.25 (≈ 3.36 µM) | >50 | >50 | neutral or even pro-proliferative | neutral or even pro-proliferative | >50 | >50 | >50
CCCCCCCCCCCC(=O)NCCC(=O)N[C@@H](Cc1c[nH]cn1)C(=O)NCCOCCOCC(=O)N[C@H](C(=O)N[C@@H](CCCCN)C(=O)N[C@@H](CCCCN)C(=O)N[C@H](C(=O)N[C@@H](CC(C)C)C(=O)N[C@@H](CO)C(=O)N[C@@H](CCCCN)C(=O)N[C@H](C(=O)N[C@@H](CCCCN)C(=O)N[C@@H](CCCCN)C(=O)N[C@@H](CC(C)C)C(=O)N[C@@H](CC(C)C)C(N)=O)[C@@H](C)CC)[C@@H](C)CC)[C@@H](C)CC [C12-CAR-PEG-DK5] ({Lauroyl-βAla}-H[AEEA]IKKILSKIKKLL-NH2) | 12.5 (≈ 6.38 µM) | 3.13 (≈ 1.6 µM) | 12.5 (≈ 6.38 µM) | 0.78 (≈ 0.398 µM) | 3.13 (≈ 1.6 µM) | – | 10 (≈ 5.1 µM) | – | – | 12.5 (≈ 6.38 µM) | 12.5 (≈ 6.38 µM) | >50
CCCCCCCCCCCCCCCC(=O)NCCC(=O)N[C@@H](Cc1c[nH]cn1)C(=O)NCCOCCOCC(=O)N[C@H](C(=O)N[C@@H](CCCCN)C(=O)N[C@@H](CCCCN)C(=O)N[C@H](C(=O)N[C@@H](CC(C)C)C(=O)N[C@@H](CO)C(=O)N[C@@H](CCCCN)C(=O)N[C@H](C(=O)N[C@@H](CCCCN)C(=O)N[C@@H](CCCCN)C(=O)N[C@@H](CC(C)C)C(=O)N[C@@H](CC(C)C)C(N)=O)[C@@H](C)CC)[C@@H](C)CC)[C@@H](C)CC [C16-CAR-PEG-DK5] ({Palmitoyl-βAla}-H[AEEA]IKKILSKIKKLL-NH2) | 12.5 (≈ 6.2 µM) | >50 | 25 (≈ 12.4 µM) | 25 (≈ 12.4 µM) | 12.5 (≈ 6.2 µM) | 6.25 | 1 (≈ 0.496 µM) | – | – | 4 (≈ 1.98 µM) | >50 | >50
